One block for each compound: values may come before it.
Tests used:
protein kinase A (PKA) = experiment: PKA activity in cell lysates; assay type: cell-based; conditions: 100 nM of mPKI, 10 μM of H-89
Experimental: The lysates of untreated and CT-treated PC-3CTRwt and PC-3CTRΔESS cells were also used to determine CT-stimulated protein kinase A (PKA) and protein kinase C (PKC) activity (PKA and PKC assay kits, Promega, Madison, Wis.). The manufacturer's instructions were followed.
FIG. 1E depicts the effect of 50 nM CT on PKA activity in cell lysates of untreated and CT-treated PC-3 CTRwt and PC-3 CTRΔESS cells that were incubated with PKA substrate peptide and ^32P-ATP, and also treated with an activator of PKA, forskolin (FSK). FIG. 1F depicts the effect of 50 nM CT on PKC activity in lysates of untreated and CT-treated PC-3 CTRwt and PC-3 CTRΔESS cells that were incubated with PKC substrate peptide and ^32P-ATP, and also treated with an activator of PKC, phorbol 12-myristate 13-acetate (PMA).
To test whether specific PKA inhibitors abrogate CT-induced TJ disassembly, two specific, well-characterized PKA inhibitors, mPKI and H-89, were used. PC-3CTRwt cells were treated with CT (50 nM for 30 min) in the presence of mPKI (100 nM) or H-89 (10 μM). Either of these inhibitors was added 15 min prior to the addition of CT. […] FIG. 16A depicts photo micrographs of PC3-CTRwt cells, CT-stimulated in the presence and absence of mPKI. […]

PC-3-CTR-wt cells = experiment: Matrigel in vitro invasion assay; assay type: cell-based; conditions: for effect on CT-induced invasion / effect on basal invasion: peptide 50 μM; for effect on CT-induced invasion: CT 50 nM; for effect on basal invasion: no CT
Experimental: Invasion experiments were conducted in Matrigel™ invasion chambers as previously described (Sabbisetti et al., 2005).
CT increases invasiveness, and even induces an invasive phenotype in non-invasive prostate cancer cells. The role of PDZ-binding motif in CT-stimulated invasion was examined. FIG. 2C depicts CTR-C PDZ-binding motif mutation and effects on cell invasion. PC-3V, PC-3 CTRwt and PC-3 CTRΔESS cells were added to upper insert of invasion chambers with or without 50 nM CT, and cells that passed through the Matrigel™ barrier were counted after 48 h. The results are expressed as mean number of invaded cells per 400× field ±SEM (n=6; *p<0.05 (PC-3V v PC-3CTR-wt); $ p<0.05 (PC-3CTR-wt v PC-3CTRΔESS); $$-p<0.05 (PC-3CTRwt+CT v PC-3CTRΔESS+CT) (one-way ANOVA and Newman-Keul's test)). Expression of CTRwt in PC-3 cells increased invasion by 2.5-fold (FIG. 2C).
(§1) As shown above, CTR binds to ZO-1 through PDZ interaction (i.e. PDZ ligand on C-tail of CTR binds to the PDZ domain of ZO-1). To attenuate this binding, ZO-1 was saturated with a small C-terminal peptide of CTR sequence containing the PDZ-binding motif. Since ZO-1 is an intracellular membrane protein, the interfering peptide was delivered inside the plasma membrane. It has been shown that trans-activating transcriptional activator (TAT) protein (86-mer polypeptide) from HIV-1 enters mammalian cells when added to the surrounding media (Frankel et al., 1988; Green et al., 1989). Certain small regions of such proteins (10-16-mers) called protein transduction domains (PTDs), also efficiently traverse biological membranes (Elliott et al., 1997). Therefore, a fusion peptide Pep 1 was synthesized of TAT-peptide sequences of HIV virus and CTR-C(N-[…]-C (SEQ ID NO:2), CTR-C sequence underlined). The first experiment was to see if Pep I binds to ZO-1 in reversible fashion. For this, amino acid Y in Pep I was labeled with ^125I, and the binding with ZO-1 analyzed in the presence/absence of unlabeled Pep I (1000×; 20 μM). PC-3CTR-ZO-1-MYC cells were first incubated with unlabeled Pep I or control peptide (20 μM) for 5 min. The cells were then incubated with ^125I-pep I or C for 25 min. The cells were then washed in IP buffer, treated with DSP, and lysed. ZO-1 IPs were obtained, fractionated on SDS-PAGE, and autoradiographed. […] Next, whether Pep I competes with CTR for ZO-1 binding was tested. For this, PC-3-CTR-wt cells were treated with CT (50 nM) and or Pep I (50 μM) for 15 min. The CTR IPs were then immunoblotted and probed for ZO-1 immunoreactivity. […] Next, the biological impact of this phenomenon was examined by testing the effect of Pep I on CTR-stimulated invasion.
The binding of ZO-1 and CTR can be attenuated by saturating ZO-1 with a small C-terminal peptide of CTR sequence containing the PDZ ligand. Since ZO-1 is an intracellular membrane protein, the interfering peptide must penetrate plasma membrane to interact with ZO-1. As discussed above, fusion peptides of small TAT peptides (12-mer) and six (Pep I) or eight amino acids (Pep II) of C-terminal of CTR were synthesized. Control peptides were TAT peptides (12-mer) containing random amino acid sequence of equivalent size (6-mer). […] Thus, these two peptides (sequences given below) could be used therapeutically to attenuate or inhibit metastasis in cancerous cells.

ZO-1 = biological target: T1, ZO-1 (Homo sapiens, UniProt Q07157); experiment: 125I-Pep I binding to ZO-1 (ZO-1 immunoprecipitation, autoradiography)
T1 construct: expressed in transfected cells; host or cells: PC-3CTR-ZO-1-MYC cells
T1 sequence (Q07157 whole entry): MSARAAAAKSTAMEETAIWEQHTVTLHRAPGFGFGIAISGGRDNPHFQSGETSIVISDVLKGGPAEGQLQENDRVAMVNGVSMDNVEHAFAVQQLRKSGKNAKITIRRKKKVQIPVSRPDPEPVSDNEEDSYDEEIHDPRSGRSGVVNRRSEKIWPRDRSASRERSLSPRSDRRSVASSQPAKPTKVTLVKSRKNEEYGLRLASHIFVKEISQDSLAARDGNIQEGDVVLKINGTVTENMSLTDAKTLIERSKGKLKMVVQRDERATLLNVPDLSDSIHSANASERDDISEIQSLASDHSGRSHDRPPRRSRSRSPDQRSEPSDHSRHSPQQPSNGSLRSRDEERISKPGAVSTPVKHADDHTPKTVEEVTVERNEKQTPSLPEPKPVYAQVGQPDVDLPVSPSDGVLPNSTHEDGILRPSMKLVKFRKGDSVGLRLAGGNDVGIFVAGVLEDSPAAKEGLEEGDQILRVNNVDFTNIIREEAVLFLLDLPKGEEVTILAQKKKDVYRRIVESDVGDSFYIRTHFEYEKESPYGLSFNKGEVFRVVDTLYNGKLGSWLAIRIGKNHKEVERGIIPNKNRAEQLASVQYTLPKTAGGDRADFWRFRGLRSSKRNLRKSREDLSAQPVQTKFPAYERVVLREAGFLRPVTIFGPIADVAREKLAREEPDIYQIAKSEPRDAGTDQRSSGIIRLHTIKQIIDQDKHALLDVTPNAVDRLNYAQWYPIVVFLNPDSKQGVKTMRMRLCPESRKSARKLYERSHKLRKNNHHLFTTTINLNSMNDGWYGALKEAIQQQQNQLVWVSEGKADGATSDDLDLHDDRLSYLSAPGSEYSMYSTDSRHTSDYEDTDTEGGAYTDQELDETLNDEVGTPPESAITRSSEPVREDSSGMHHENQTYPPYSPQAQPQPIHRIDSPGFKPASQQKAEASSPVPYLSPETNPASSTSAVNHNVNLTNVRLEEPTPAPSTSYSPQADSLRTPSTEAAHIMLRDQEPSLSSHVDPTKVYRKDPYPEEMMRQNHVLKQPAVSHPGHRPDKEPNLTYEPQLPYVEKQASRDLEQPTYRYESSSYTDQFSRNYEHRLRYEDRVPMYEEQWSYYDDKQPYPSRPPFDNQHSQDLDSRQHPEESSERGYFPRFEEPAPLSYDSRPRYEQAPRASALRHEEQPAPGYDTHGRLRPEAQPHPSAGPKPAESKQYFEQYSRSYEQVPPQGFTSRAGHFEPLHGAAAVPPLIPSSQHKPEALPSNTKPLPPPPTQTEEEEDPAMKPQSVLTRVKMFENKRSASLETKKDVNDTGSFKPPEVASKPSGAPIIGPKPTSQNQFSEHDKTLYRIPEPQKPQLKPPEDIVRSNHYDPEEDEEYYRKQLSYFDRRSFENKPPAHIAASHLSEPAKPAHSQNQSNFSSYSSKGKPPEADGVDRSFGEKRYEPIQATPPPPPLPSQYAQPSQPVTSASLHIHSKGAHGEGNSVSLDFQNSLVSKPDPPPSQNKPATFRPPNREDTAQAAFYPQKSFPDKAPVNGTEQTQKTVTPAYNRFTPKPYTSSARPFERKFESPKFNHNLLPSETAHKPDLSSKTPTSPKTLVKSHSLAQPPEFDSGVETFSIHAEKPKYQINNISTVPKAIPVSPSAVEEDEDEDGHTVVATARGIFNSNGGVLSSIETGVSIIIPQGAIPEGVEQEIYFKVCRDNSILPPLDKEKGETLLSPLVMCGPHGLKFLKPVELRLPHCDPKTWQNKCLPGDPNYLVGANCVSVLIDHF
Experimental: The cells were then treated with ^125I-TAT-pepI or TAT-C for 25 min. The cell lysates were then immunoprecipitated with Anti-ZO-1 serum, the immunoprecipitates were washed, fractionated on SDS-gel, and then immunoblotted for ZO-1 and autoradiographed.
As shown above, CTR binds to ZO-1 through PDZ interaction (i.e. PDZ ligand on C-tail of CTR binds to the PDZ domain of ZO-1). To attenuate this binding, ZO-1 was saturated with a small C-terminal peptide of CTR sequence containing the PDZ-binding motif. Since ZO-1 is an intracellular membrane protein, the interfering peptide was delivered inside the plasma membrane. It has been shown that trans-activating transcriptional activator (TAT) protein (86-mer polypeptide) from HIV-1 enters mammalian cells when added to the surrounding media (Frankel et al., 1988; Green et al., 1989). Certain small regions of such proteins (10-16-mers) called protein transduction domains (PTDs), also efficiently traverse biological membranes (Elliott et al., 1997). Therefore, a fusion peptide Pep 1 was synthesized of TAT-peptide sequences of HIV virus and CTR-C(N-[…]-C (SEQ ID NO:2), CTR-C sequence underlined). The first experiment was to see if Pep I binds to ZO-1 in reversible fashion. For this, amino acid Y in Pep I was labeled with ^125I, and the binding with ZO-1 analyzed in the presence/absence of unlabeled Pep I (1000×; 20 μM). […]

CTR-ZO-1 interaction = experiment: CTR-ZO-1 co-immunoprecipitation; assay type: cell-based; conditions: Pep I 50 μM, with or without CT 50 nM, PC-3-CTR-wt cells
Experimental: Serum-starved PC-31-V, PC-31-CTRwt or PC-31-CTRΔESS cells (2×10^6 per 100 mm dish) were stimulated with or without 50 nM CT for 3 min, washed, and lysed in the IP buffer as previously described (von Zastrow et al., 1994). CTR in normalized lysate proteins was immunoprecipitated with anti-FLAG EZ-view beads (Sigma Chemical Co., St. Louis, Mo.), and eluted with FLAG peptide (600 μg/ml in PBS). CTR immunoprecipitates were processed for ZO-1 immunoblotting. To control for protein loading and transfer, the blots were stripped and reprobed with immunoprecipitating antibody.
PC-31 cells stably expressing either FLAG-CTRwt or FLAGCTRΔESS were treated with or without CT for 3 min. The analysis of FLAG-CTR IPs confirmed that only FLAG-CTRwt, but not FLAG-CTRΔESS, co-precipitated ZO-1 (FIG. 3B). […] The effect of multiple CT concentrations on CTR-ZO-1 co-precipitation was tested in PC-3 cells. […] However, co-precipitation of ZO-1 by CTRwt was strong in PC-3 cells stimulated with 10 nM CT, and was even stronger in the cells receiving 100 nM CT.
as §1

[1] = system: TCF/LEF promoter activity in PC-3 cells; experiment: TCF/LEF luciferase reporter assay (pGL3-OT/pGL3-OF); assay type: cell-based
Experimental: FIG. 28 depicts effect of CT on TCF/LEF promoter activity in PC-3 cells with various compounds added with CT. Cells were seeded into 6-well plates and transfected with the pGL3-OT luciferase/pRL-tK plasmids or pGL3-OF-luciferase/pRL-TK plasmids. The cells were then incubated in complete medium for 48 h, after which they were serum-starved for 16 h. The cells were then treated with CT and/or PMH compounds, and the cell lysates analyzed for luciferase activity. The results are expressed as relative light units (RLU) after normalization with Renilla luciferase activity. The experiment was repeated three separate times, and results expressed as means±S.E.M.
Certain hydantoin-like molecules isolated from sea sponge have been identified that could inhibit prostate cell metastasis (Shah et al., 2009; Mudit et al., 2011). Disruption of junctional complex stabilizes intracellular β-catenin, leading to its translocation in the nucleus, where it can bind to its partner LEF-1 (lymphocyte enhancer binding factor-1) to transactivate target genes. The transcription of TCF/LEF genes can be quantitated by using luciferase-based reporter plasmids, pGL3-OT and pGL3-OF, the improved version of the Topflash and Fopflash vectors (Shah et al., 2009). This assay can be used to comparatively evaluate junction disrupting activity of multiple compounds in a single assay. […] The two compounds, MRM-6 and MRM-4, derivatives of PMH whose structures are shown below, were obtained from Dr. K. A. El Sayed.

prostate tumor = conditions: Shah et al., 2009; cited from earlier work

Compound: O=S(=O)(NCCNC/C=C/c1ccc(Br)cc1)c1cccc2cnccc12 [Pep H-89]
effect on CT-stimulated PKA activity (protein kinase A (PKA)): completely abolished

binding to ZO-1 (co-IP of 125I-labeled peptide) (ZO-1; PC-3CTR-ZO-1-MYC cells, 25 min): bound to ZO-1 | binding of 125I-Pep I to ZO-1 in the presence of unlabeled Pep I (ZO-1; unlabeled Pep I 1000×, 20 μM): almost abolished
Compound: N-EQESSAAYGRKKRRQRRR-C [Pep I]
relative potency as antagonist of CT-induced invasion (PC-3-CTR-wt cells; Pep I versus Pep II, 50 μM): the more potent antagonist | effect on CT-induced invasion (PC-3-CTR-wt cells): significantly attenuated | effect on CT-induced invasion (PC-3-CTR-wt cells; listed as TAT-pepI): attenuate | effect on basal invasion (PC-3-CTR-wt cells): neither the control peptide nor Pep I (50 μM) significantly affected | effect on basal invasion (PC-3-CTR-wt cells; listed as PepI): did not significantly affect | effect on CTR-ZO-1 co-precipitation (CTR-ZO-1 interaction): markedly diminished

Compound: O=C1NC(=O)/C(=C/c2ccc(/C=C3/NC(=O)NC3=O)cc2)N1 [MRM-6, (5Z,5′E)-5,5′-(1,4-phenylenebis(methan-1-yl-1-ylidene))diimidazolidine-2,4-dione]
potency relative to PMH and S-PMH in blocking CTR-ZO-1 interaction-mediated TCF/LEF activity [1]: more potent | potency relative to PMH in inhibiting CT action ([1]; with 50 nM CT): significantly more potent than PMH

Compound: Nc1ccc(/C=C2\NC(=O)NC2=O)c(Cl)c1 [MRM-4, (Z)-5-(4-amino-2-chlorobenzylidene)imidazolidine-2,4-dione]
potency relative to PMH and S-PMH in blocking CTR-ZO-1 interaction-mediated TCF/LEF activity [1]: more potent | potency relative to PMH in inhibiting CT action ([1]; with 50 nM CT): significantly more potent than PMH

Compound: O=C1NC(=O)/C(=C/c2ccccc2)N1 [PMH, phenyl-methylene hydrantoin]
effect on CT-stimulated luciferase activity ([1]; with 50 nM CT): decreased it remarkably | cell-cell adhesion, prostate tumor growth and metastasis (prostate tumor): enhance cell-cell adhesion and attenuate prostate tumor growth and metastasis

Compound: N-IIEQESSAYGRKKRRQRRR-C [Pep II]
effect on CT-induced invasion (PC-3-CTR-wt cells): significantly attenuated | effect on CT-induced invasion (PC-3-CTR-wt cells; listed as pepII): attenuate | effect on basal invasion (PC-3-CTR-wt cells): did not significantly affect

Compound: CCSC1=N/C(=C\c2ccccc2)C(=O)N1 [S-PMH]
cell-cell adhesion, prostate tumor growth and metastasis (prostate tumor): enhance cell-cell adhesion and attenuate prostate tumor growth and metastasis

From patent US9765115B2, “Inhibitors of metastasis, methods of generating such inhibitors and their therapeutic applications” (Board of Supervisors of Louisiana State University acting …, priority 2011, dated 2017)
